Our source for the GI50 and TGI values is PubChem BioAssay (NCI).

Among the test systems are A549 NSCLC; HL-60(TB) leukemia; HOP-62 NSCLC; HOP-92 NSCLC; OVCAR-3 ovarian; RPMI-8226 leukemia; SK-MEL-2 melanoma; SK-OV-3 ovarian; TK-10 renal; U251 CNS.
Test in all cases: NCI tumour cell line growth inhibition, 48 h

Molecules are shown by their SMILES.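 Interpolation was linear, between the two tested concentrations surrounding the appropriate level; five concentrations were tested over 48 hours in 96-well plates. GI50 is the concentration that inhibits growth by half. The concentration for full growth arrest is given as TGI.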 Bounds are passed on as bounds.

Take `S=C(N/N=C/c1ccccn1)Nc1ccccn1`: the GI50 was 2.34 µM with A549 NSCLC; 0.316 µM in the assay on HL-60(TB) leukemia; 1.73 µM in the assay on HOP-62 NSCLC; 0.478 µM in the assay on HOP-92 NSCLC; 0.327 µM in the assay with OVCAR-3 ovarian; 1.44 µM with RPMI-8226 leukemia. For the same compound, the GI50 is 2.35 µM in the assay with SK-MEL-2 melanoma, 2.29 µM in the assay on SK-OV-3 ovarian, 2.93 µM with TK-10 renal and 1.07 µM with U251 CNS. Besides, the TGI in the assay with A549 NSCLC is 76.6 µM; in the assay on HL-60(TB) leukemia it was 1.25 µM; in the assay with HOP-62 NSCLC, 9.22 µM; in the assay with HOP-92 NSCLC it was 6.23 µM; in the assay on OVCAR-3 ovarian it was 3.14 µM; with RPMI-8226 leukemia it was greater than 100 µM. Further, the TGI in the assay with SK-MEL-2 melanoma is 9.74 µM; in the assay with SK-OV-3 ovarian, greater than 100 µM; in the assay on TK-10 renal, greater than 100 µM; in the assay on U251 CNS, 24 µM.
With `Cc1nc2cccc(NCc3ccc(C(=O)NO)cc3)c2c(=O)n1-c1ccccc1`, the GI50 in the assay with A549 NSCLC was 2.22 µM; in the assay with HL-60(TB) leukemia, 2.87 µM; with HOP-62 NSCLC it was 1.65 µM; in the assay on HOP-92 NSCLC, 1.93 µM; in the assay with OVCAR-3 ovarian it was 2.16 µM; with RPMI-8226 leukemia, 2.39 µM. For the same compound, the GI50 was 2.36 µM in the assay on SK-MEL-2 melanoma, 2.71 µM in the assay with SK-OV-3 ovarian, 1.76 µM in the assay on TK-10 renal and 1.56 µM in the assay with U251 CNS. The TGI with A549 NSCLC is 5.17 µM; with HL-60(TB) leukemia, 10.2 µM; in the assay with HOP-62 NSCLC, 4.47 µM; in the assay on HOP-92 NSCLC, 4.46 µM; with OVCAR-3 ovarian it was 4.9 µM; in the assay with RPMI-8226 leukemia it was greater than 100 µM. Further, the TGI worked out at 5.12 µM with SK-MEL-2 melanoma, 8.28 µM with SK-OV-3 ovarian, 6.07 µM in the assay on TK-10 renal and 3.04 µM with U251 CNS.
